According to ChEMBL document CHEMBL5331060, “Bisindole natural products: A vital source for the development of new anticancer drugs” (Eur J Med Chem, 2022):
≈ marks a conversion by molar mass, not a printed value.

What was measured:
SMMC-7721 [1] = test: Antiproliferative activity against human SMMC-7721 cells assessed as inhibition of cell growth incubated for 48 hrs by MTS assay; format: functional, cell-based; settings: SMMC-7721, 48 h
HeLa = test: Antiproliferative activity against human HeLa cells assessed as inhibition of cell growth incubated for 48 hrs by MTT assay; format: functional, cell-based
A549 [2] = test: Antiproliferative activity against human A549 cells assessed as inhibition of cell growth incubated for 48 hrs by MTS assay; format: functional, cell-based; settings: A549, 48 h
MCF7 [3] = test: Antiproliferative activity against human MCF7 cells assessed as inhibition of cell growth incubated for 48 hrs by MTT assay; format: functional, cell-based; settings: MCF7, 48 h
HT-29 = test: Antiproliferative activity against human HT-29 cells assessed as inhibition of cell growth incubated for 48 hrs by MTS assay; format: functional, cell-based; settings: HT-29, 48 h
SW480 [4] = test: Antiproliferative activity against human SW480 cells assessed as inhibition of cell growth incubated for 48 hrs by MTT assay; format: functional, cell-based; settings: SW480, 48 h
MCF7 [5] = test: Antiproliferative activity against human MCF7 cells assessed as inhibition of cell growth incubated for 48 hrs by MTS assay; format: functional, cell-based; settings: MCF7, 48 h
SW480 [6] = test: Antiproliferative activity against human SW480 cells assessed as inhibition of cell growth incubated for 48 hrs by MTS assay; format: functional, cell-based; settings: SW480, 48 h
HL-60 [7] = test: Antiproliferative activity against human HL-60 cells assessed as inhibition of cell growth incubated for 48 hrs by MTS assay; format: functional, cell-based; settings: HL-60, 48 h
[8] = Antiproliferative activity against vincristine-resistant human KB cells assessed as inhibition of cell growth; format: functional, cell-based
KB [9] = test: Antiproliferative activity against drug-sensitive human KB cells assessed as inhibition of cell growth; format: functional, cell-based
LoVo = test: Antiproliferative activity against human LoVo cells assessed as inhibition of cell growth by MTT assay; format: functional, cell-based
MCF7 [10] = test: Antiproliferative activity against human MCF7 cells assessed as inhibition of cell growth by MTT assay; format: functional, cell-based
HepG2 = test: Antiproliferative activity against human HepG2 cells assessed as inhibition of cell growth by MTT assay; format: functional, cell-based
A549 [11] = test: Antiproliferative activity against human A549 cells assessed as inhibition of cell growth incubated for 72 hrs by SRB assay; format: functional, cell-based; settings: A549, 72 h
MCF7 [12] = test: Antiproliferative activity against human MCF7 cells assessed as inhibition of cell growth incubated for 72 hrs by SRB assay; format: functional, cell-based; settings: MCF7, 72 h
HCT-116 = test: Cytotoxicity against human HCT-116 cells assessed as reduction in cell viability at 20 uM measured after 48 hrs by MTS assay relative to control; format: functional
MCF7 [13] = test: Antiproliferative activity against human MCF7 cells assessed as inhibition of cell growth incubated for 24 hrs by MTT assay; format: functional, cell-based; settings: MCF7, 24 h
A549 [14] = test: Antiproliferative activity against human A549 cells assessed as inhibition of cell growth; format: functional, cell-based
MCF7 [15] = test: Antiproliferative activity against human MCF7 cells assessed as inhibition of cell growth; format: functional, cell-based
SMMC-7721 [16] = test: Antiproliferative activity against human SMMC-7721 cells assessed as inhibition of cell growth; format: functional, cell-based
SW480 [17] = test: Antiproliferative activity against human SW480 cells assessed as inhibition of cell growth; format: functional, cell-based
[18] = Antiproliferative activity against mouse […] cells assessed as inhibition of cell growth; format: functional, cell-based
[19] = Antiproliferative activity against human BC cells assessed as inhibition of cell growth incubated for 24 hrs by MTT assay; format: functional, cell-based
L1210 = test: Antiproliferative activity against mouse L1210 cells assessed as inhibition of cell growth incubated for 24 hrs by MTT assay; format: functional, cell-based; settings: L1210, 24 h
AGS = test: Antiproliferative activity against human AGS cells assessed as inhibition of cell growth incubated for 24 hrs by MTT assay; format: functional, cell-based
KB [20] = test: Antiproliferative activity against human KB cells assessed as inhibition of cell growth incubated for 72 hrs by neutral red based colorimetric assay; format: functional
K562 = test: Antiproliferative activity against human K562 cells assessed as inhibition of cell growth incubated for 48 hrs by WST-1 assay; format: functional, cell-based; settings: K562, 48 h
HL-60 [21] = test: Antiproliferative activity against human HL-60 cells assessed as inhibition of cell growth incubated for 48 hrs by WST-1 assay; format: functional, cell-based; settings: HL-60, 48 h

CC[C@]12C=CCN3CC[C@]4(C(=C(C(=O)OC)C1)Nc1cc5c(cc14)[C@@H]1[C@H](O5)[C@@H](O)[C@@]4(CC)CC(C(=O)OC)=C5Nc6c(ccc(OC)c6OC)[C@@]56CCN1[C@@H]46)[C@@H]32
IC50 (SMMC-7721 [1]): 300 nM
IC50 (HeLa): 1420 nM
IC50 (A549 [2]): 3410 nM
IC50 (MCF7 [3]): 1420 nM
IC50 (HT-29): 750 nM
IC50 (SW480 [4]): 1420 nM

CC[C@]12C=C[C@H]([C@@]34CN5CC[C@]67C(=C(C(=O)OC)C[C@](CC)([C@@H]3O4)[C@H]56)Nc3cc(OC)ccc37)N3CC[C@]4(C(=C(C(=O)OC)C1)Nc1cc(OC)ccc14)[C@@H]32
IC50 (SMMC-7721 [1]): 13100 nM
IC50 (A549 [2]): 13100 nM
IC50 (MCF7 [5]): 13100 nM
IC50 (SW480 [6]): 13100 nM
IC50 (HL-60 [7]): 13100 nM

CC[C@H]1[C@@H]2CCN3CC[C@@]4(C5=C2C[C@@]2(CN5c5ccccc54)C4=Nc5ccccc5[C@]45CCN4CC[C@H]2[C@H](CC)[C@@H]45)[C@@H]13
IC50 [8]: 570 nM
IC50 (KB [9]): 570 nM

CC[C@]1(O)C[C@H]2C[C@](C(=O)OC)(c3cc4c(cc3OC)N(C)[C@@H]3[C@]45CCN4CC=C[C@@](CC)(C[C@]3(O)C(=O)OC)[C@H]45)c3[nH]c4ccccc4c3CC[N+]([O-])(C2)C1
IC50 (LoVo): > 100000 nM
IC50 (MCF7 [10]): 42700 nM
IC50 (HepG2): 28100 nM

CC[C@H]1CN(C)[C@H]2Cc3c([nH]c4ccccc34)[C@H](c3c(OC)ccc4c5c([nH]c34)[C@]3(C(=O)OC)C[C@@H]4C[C@H](CC)[C@@H]3N(CC5)C4)C[C@H]1[C@@H]2C(=O)OC
IC50 (A549 [11]): 10900 nM
IC50 (MCF7 [12]): 10900 nM
Activity (HCT-116): 40%

C/C=C1/CN(C)[C@H]2Cc3c([nH]c4ccccc34)[C@H](c3c(OC)ccc4c5c6n(c34)C[C@@H]3C[C@@H](CC)[C@@H](NCC5)[C@@]6(C(=O)OC)C3)C[C@H]1[C@]2(CO)C(=O)OC
IC50 (HepG2): 38100 nM

CC[C@@]12CC(C(=O)OC)=C3Nc4cc5c(cc4[C@@]34CCN(C[C@@H]3O[C@@H]31)[C@@H]24)[C@@H]1[C@H](O5)[C@@H](O)[C@@]2(CC)CC(C(=O)OC)=C3Nc4c(cc(O)c(OC)c4OC)[C@@]34CCN1[C@@H]24
IC50 (HeLa): 1420 nM
IC50 (MCF7 [3]): 1420 nM
IC50 (SW480 [4]): 1420 nM

O=C1C[C@H]2c3cc(O)c(O)cc3[C@]3(Nc4ccccc4C3=O)[C@]23C(=O)c2ccccc2N13
IC50 (MCF7 [13]): 31700 nM

CC[C@@]12CC(C(=O)OC)=C3Nc4cc5c(cc4[C@@]34CCN(C[C@H]3O[C@H]31)[C@@H]24)[C@@H]1[C@H](O5)[C@@H](O)[C@@]2(CC)CC(C(=O)OC)=C3Nc4c(cc(O)c(OC)c4OC)[C@@]34CCN1[C@@H]24 [CONOPHYLLINE]
IC50 (A549 [14]): 170 nM
IC50 (MCF7 [15]): 170 nM
IC50 (SMMC-7721 [16]): 170 nM
IC50 (SW480 [17]): 170 nM

Brc1ccc2c(-c3c[nH]c(-c4c[nH]c5cc(Br)ccc45)n3)c[nH]c2c1 [NORTOPSENTIN A]
IC50 [18]: 7.6 µg/mL (≈ 16.7 µM)

Brc1ccc2c(-c3nc(-c4c[nH]c5ccccc45)c[nH]3)c[nH]c2c1 [NORTOPSENTIN B]
IC50 [18]: 7.8 µg/mL (≈ 20.7 µM)

Brc1ccc2c(-c3c[nH]c(-c4c[nH]c5ccccc45)n3)c[nH]c2c1 [NORTOPSENTIN C]
IC50 [18]: 1.7 µg/mL (≈ 4.51 µM)

O=C(C1=NC(c2c[nH]c3cc(Br)ccc23)CN1)c1c[nH]c2ccccc12 (configuration not stated) [SPONGOTINE A]
IC50 [19]: 10.7 µg/mL (≈ 26.3 µM)
IC50 (L1210): 1.1 µg/mL (≈ 2.7 µM)
IC50 (AGS): 1.1 µg/mL (≈ 2.7 µM)

CC[C@]1(O)C[C@@H]2CN(CCc3c([nH]c4ccccc34)[C@@](C(=O)OC)(c3cc4c(cc3OC)N(C)[C@H]3[C@@](O)(C(=O)OC)[C@H](OC(C)=O)[C@]5(CC)C=CCN6CC[C@]43[C@@H]65)C2)C1 [VINBLASTINE]
IC50 (KB [20]): 8 nM

CC[C@]12CN3CCc4c([nH]c5ccccc45)[C@@](C(=O)OC)(c4cc5c(cc4OC)N(C)[C@H]4[C@@](O)(C(=O)OC)[C@H](OC(C)=O)[C@]6(CC)C=CCN7CC[C@]54[C@@H]76)C[C@@H](C3)[C@H]1O2 [VINLEUROSINE]
IC50 (K562): 56200 nM
IC50 (HL-60 [21]): 56200 nM
